Experiment [1] concerns the target T1, Tyrosine-protein phosphatase non-receptor type 11 (Homo sapiens) (UniProt Q06124).
T1 sequence (whole entry): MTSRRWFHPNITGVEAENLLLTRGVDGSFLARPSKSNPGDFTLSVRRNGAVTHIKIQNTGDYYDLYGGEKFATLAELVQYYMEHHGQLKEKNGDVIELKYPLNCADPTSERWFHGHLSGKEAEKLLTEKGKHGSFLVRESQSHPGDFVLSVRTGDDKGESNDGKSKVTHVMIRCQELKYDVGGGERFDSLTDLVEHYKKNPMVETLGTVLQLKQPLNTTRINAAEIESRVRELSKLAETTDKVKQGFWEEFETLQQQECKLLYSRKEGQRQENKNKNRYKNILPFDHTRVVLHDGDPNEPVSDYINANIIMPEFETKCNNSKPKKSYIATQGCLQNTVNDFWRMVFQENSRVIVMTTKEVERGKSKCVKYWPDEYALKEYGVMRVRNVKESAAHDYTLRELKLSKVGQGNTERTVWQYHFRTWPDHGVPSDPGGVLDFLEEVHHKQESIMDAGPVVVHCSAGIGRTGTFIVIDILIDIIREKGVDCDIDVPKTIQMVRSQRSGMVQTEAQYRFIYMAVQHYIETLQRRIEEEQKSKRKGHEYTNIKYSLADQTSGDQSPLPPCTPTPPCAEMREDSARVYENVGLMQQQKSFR
Briefly: Inhibition of allosterically sensitized mutant form of His6-tagged human SHP2 containing SHP1 and […] SH2 domain at 500 nM at 500 nM using pNPP as substrate incubated for 90 mins by quenched phosphatase activity assay.

Experiment [2] addresses Tyrosine-protein phosphatase non-receptor type 6 (Homo sapiens) (UniProt P29350). Kind of experiment: Inhibition of allosterically sensitized mutant form of His6-tagged human SHP1 catalytic domain at 500 nM using pNPP as substrate incubated for 90 mins by quenched phosphatase activity assay.
Experiment [3] concerns the target T2, Tyrosine-protein phosphatase non-receptor type 1 (Homo sapiens) (UniProt P18031).
T2 sequence (whole entry): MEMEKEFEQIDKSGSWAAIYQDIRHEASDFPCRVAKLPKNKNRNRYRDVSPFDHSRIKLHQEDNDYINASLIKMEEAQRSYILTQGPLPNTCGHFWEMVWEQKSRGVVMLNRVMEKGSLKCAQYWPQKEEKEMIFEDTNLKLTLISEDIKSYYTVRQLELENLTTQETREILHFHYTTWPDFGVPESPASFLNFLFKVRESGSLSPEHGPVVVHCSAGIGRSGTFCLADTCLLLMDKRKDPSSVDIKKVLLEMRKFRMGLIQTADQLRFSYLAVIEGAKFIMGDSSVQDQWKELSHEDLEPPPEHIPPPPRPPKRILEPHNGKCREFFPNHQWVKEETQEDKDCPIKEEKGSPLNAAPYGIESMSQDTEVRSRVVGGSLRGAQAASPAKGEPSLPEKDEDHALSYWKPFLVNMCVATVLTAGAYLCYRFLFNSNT
Kind of experiment: Binding affinity to His6-tagged human wild-type PTP1B catalytic domain overexpressed in Escherichia coli BL21(DE3) cells at 100 uM using pNPP as substrate after 90 mins by SDS-PAGE analysis.

The subject of experiment [4] is T3, Tyrosine-protein phosphatase non-receptor type 7 (Homo sapiens), P35236 [P171C,V205C].
T3 sequence (whole entry): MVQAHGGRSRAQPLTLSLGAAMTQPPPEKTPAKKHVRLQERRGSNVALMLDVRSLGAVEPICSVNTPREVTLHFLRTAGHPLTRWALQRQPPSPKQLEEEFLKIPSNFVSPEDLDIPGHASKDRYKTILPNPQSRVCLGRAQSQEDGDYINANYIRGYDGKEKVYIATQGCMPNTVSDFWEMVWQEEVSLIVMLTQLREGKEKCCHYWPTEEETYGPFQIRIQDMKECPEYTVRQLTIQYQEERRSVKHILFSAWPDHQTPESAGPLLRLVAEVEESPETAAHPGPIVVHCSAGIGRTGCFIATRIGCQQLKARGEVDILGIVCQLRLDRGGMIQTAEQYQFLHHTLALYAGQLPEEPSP
Briefly: Inhibition of allosterically sensitized mutant form of His6-tagged human HePTP catalytic domain at 500 nM using pNPP as substrate incubated for 90 mins by quenched phosphatase activity assay.

Experiment [5] has as its system T4, Tyrosine-protein phosphatase non-receptor type 1 (Homo sapiens), P18031 [P87C,A122C].
T4 sequence (whole entry): T2 sequence (whole entry) with P87C, A122C
Kind of experiment: Inhibition of allosterically sensitized His6-tagged human PTP1B catalytic domain P87C/A122C mutant at 250 nM using pNPP as substrate incubated for 90 mins by quenched phosphatase activity assay.

The species entered for experiment [6] is Homo sapiens. Briefly: Inhibition of His6-tagged human wild-type PTP catalytic domain at 500 nM using pNPP as substrate incubated for 90 mins by quenched phosphatase activity assay.
Experiment [7] addresses T1, Tyrosine-protein phosphatase non-receptor type 11 (Homo sapiens). Kind of experiment: Inhibition of allosterically sensitized mutant form of His6-tagged human SHP2 catalytic domain at 500 nM at 500 nM using pNPP as substrate incubated for 90 mins by quenched phosphatase activity assay.
Experiment [8] has as its target Tyrosine-protein phosphatase non-receptor type 13 (Homo sapiens) (UniProt Q12923). Briefly: Inhibition of allosterically sensitized mutant form of His6-tagged human FAP1 catalytic domain at 500 nM using pNPP as substrate incubated for 90 mins by quenched phosphatase activity assay.
The target in experiment [9] is T5, Tyrosine-protein phosphatase non-receptor type 7 (Homo sapiens) (UniProt P35236).
T5 sequence (whole entry): T3 sequence (whole entry) with C171P, C205V
Briefly: Inhibition of His6-tagged human wild-type HePTP catalytic domain at 1 uM using pNPP as substrate incubated for 90 mins by quenched phosphatase activity assay.

The values that follow come from ChEMBL document CHEMBL4118135, “Optimized allosteric inhibition of engineered protein tyrosine phosphatases with an expanded palette of biarsenical small molecules” (Bioorg Med Chem, 2018).

Structures are written as SMILES. Residue numbers refer to the chain shown, from its start. The source made the active and inactive calls. No cut-off for these calls is given here.

Chain of Tyrosine-protein phosphatase non-receptor type 13 (Homo sapiens) (Q12923 whole entry, the tested form may be a part): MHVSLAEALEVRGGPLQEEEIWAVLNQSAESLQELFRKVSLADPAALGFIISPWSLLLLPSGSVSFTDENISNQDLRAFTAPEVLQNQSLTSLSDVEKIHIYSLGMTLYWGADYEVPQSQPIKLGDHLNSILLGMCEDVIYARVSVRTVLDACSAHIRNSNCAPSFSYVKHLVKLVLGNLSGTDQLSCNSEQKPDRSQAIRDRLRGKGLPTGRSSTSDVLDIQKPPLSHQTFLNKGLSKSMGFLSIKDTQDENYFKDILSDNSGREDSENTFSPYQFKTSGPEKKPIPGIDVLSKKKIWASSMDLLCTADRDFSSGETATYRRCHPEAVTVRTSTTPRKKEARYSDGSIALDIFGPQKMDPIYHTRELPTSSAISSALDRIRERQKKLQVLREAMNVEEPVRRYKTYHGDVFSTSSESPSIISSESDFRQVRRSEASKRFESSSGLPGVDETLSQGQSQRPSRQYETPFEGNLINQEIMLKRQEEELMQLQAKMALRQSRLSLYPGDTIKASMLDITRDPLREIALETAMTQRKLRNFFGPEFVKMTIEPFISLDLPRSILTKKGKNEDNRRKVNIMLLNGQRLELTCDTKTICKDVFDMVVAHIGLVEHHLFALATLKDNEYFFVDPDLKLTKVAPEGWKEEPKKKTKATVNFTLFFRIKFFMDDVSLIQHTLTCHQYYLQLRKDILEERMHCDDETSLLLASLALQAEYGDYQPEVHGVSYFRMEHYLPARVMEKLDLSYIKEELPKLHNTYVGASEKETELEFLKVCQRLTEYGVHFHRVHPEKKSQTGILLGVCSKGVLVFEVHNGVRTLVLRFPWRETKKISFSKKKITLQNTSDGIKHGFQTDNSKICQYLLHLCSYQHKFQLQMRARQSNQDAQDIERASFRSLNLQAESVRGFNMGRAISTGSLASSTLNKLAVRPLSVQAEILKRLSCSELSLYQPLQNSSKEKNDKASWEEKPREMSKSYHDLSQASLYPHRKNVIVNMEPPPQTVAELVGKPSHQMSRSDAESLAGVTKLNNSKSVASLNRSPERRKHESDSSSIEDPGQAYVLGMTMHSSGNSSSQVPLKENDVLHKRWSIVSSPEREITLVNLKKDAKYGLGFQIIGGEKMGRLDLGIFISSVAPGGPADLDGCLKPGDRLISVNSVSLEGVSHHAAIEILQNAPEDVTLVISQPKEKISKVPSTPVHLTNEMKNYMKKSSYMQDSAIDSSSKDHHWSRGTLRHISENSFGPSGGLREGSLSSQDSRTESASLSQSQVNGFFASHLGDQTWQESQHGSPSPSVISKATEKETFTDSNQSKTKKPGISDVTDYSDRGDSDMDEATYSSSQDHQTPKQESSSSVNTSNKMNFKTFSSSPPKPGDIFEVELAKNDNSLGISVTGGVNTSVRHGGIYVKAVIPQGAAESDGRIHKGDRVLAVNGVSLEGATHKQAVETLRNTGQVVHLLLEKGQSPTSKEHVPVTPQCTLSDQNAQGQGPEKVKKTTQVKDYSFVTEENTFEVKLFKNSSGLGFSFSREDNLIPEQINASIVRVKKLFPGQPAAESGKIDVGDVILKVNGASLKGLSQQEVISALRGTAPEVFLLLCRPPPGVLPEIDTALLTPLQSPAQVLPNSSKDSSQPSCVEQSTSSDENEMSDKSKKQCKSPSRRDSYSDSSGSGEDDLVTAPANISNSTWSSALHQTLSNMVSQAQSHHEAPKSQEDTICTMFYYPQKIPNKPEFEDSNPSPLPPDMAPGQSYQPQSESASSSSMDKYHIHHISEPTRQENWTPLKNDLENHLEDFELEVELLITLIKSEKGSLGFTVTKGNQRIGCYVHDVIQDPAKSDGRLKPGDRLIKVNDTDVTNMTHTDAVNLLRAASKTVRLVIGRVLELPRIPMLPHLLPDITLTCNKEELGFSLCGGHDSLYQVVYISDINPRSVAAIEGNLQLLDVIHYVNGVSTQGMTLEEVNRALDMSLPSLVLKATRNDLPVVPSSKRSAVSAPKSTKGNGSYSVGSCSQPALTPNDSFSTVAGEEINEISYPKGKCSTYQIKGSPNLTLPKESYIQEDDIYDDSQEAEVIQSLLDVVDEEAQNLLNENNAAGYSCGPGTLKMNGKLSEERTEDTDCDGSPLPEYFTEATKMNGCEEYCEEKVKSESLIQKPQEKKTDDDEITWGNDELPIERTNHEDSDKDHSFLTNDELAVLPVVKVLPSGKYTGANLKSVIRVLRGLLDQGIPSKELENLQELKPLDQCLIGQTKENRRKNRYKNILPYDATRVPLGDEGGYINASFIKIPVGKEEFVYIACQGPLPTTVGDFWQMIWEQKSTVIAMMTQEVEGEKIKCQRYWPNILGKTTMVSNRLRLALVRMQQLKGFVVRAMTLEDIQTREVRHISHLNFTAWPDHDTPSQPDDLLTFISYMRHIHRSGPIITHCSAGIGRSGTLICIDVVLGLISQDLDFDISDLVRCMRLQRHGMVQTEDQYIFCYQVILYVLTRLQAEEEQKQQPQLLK
Chain of Tyrosine-protein phosphatase non-receptor type 6 (Homo sapiens) (P29350 whole entry, the tested form may be a part): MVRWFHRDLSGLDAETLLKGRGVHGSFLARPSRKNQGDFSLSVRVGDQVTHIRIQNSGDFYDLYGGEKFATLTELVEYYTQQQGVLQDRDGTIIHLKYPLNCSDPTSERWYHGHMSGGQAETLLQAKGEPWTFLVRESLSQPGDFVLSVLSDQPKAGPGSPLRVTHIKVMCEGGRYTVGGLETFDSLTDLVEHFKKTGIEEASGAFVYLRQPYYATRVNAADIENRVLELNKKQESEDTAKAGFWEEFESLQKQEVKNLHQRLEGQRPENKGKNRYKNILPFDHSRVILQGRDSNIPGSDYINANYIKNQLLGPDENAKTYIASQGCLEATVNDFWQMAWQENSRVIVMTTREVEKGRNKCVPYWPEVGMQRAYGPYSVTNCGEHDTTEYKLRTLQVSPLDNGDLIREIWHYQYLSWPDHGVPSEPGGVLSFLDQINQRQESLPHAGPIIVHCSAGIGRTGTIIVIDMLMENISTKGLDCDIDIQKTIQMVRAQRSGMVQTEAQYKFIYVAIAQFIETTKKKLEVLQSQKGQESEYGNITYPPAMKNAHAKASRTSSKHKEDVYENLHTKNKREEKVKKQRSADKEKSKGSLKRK

For orientation: inhibition means the drop in the measured response relative to a control, in per cent. Turning to `CC1(C)C(/C=C/C=C2/N(CCCCS(=O)(=O)O)c3ccc([As]4SCCS4)cc3C2(C)C)=[N+](CCCCS(=O)(=O)O)c2ccc([As]3SCCS3)cc21`, the inhibition entry in experiment [1], in experiment [4] and in [7] was “inactive” each time. For the same compound, the inhibition entry in [2], in experiment [6] and in experiment [8] was “Active” throughout. Also, in [3], the result was inactive. Also, in experiment [5], the inhibition came out at 70%.

Take `O=C(O)c1ccccc1-c1c2ccc(=O)c([As]3SCCS3)c-2oc2c([As]3SCCS3)c(O)ccc12`: the inhibition result in experiment [1], in experiment [2], in [4], in experiment [5], in experiment [6] and in [7] was “Active” in each case. Further, the inhibition result in experiment [8] was “Active”. In experiment [9], the inhibition result was “inactive”.
